Reference: article PMC2944806, “HLA Class I Binding of HBZ Determines Outcome in HTLV-1 Infection” (PLoS Pathogens, 2010)

Each sequence was assayed against HLA class I molecule B*3501 (Homo sapiens, UniProt P01889, A329T/A93T/A95T/C349S/D201E/D98Y/E176V/E187L/E204Q/E69T/I218V/K202T/L119I/Q94N/R155S/R180L/S121R/S35A/S48A/T118I/V127L/V306I/V36M/Y140S/Y91F) (assay: REVEAL HLA-peptide binding assay, B*3501). Settings: assembly of peptide-HLA complex by ELISA with conformation-dependent anti-HLA antibody, relative to positive control peptide for that allele, comparable within an allele only.
Protocol: The REVEAL HLA-peptide binding assay (ProImmune Ltd., Oxford, UK) was used to quantify peptide-HLA binding. For each allele-peptide combination that was tested, assembly of peptide-HLA complexes was quantified by ELISA with a conformation-dependent anti-HLA antibody. Samples of assembling peptide-HLA complexes were taken at a defined time point and snap-frozen in liquid nitrogen prior to analysis. The assembly for each peptide-HLA complex was then compared against a positive control peptide for that allele as the percentage of assembled peptide relative to that control. We selected four HLA class I alleles and 50 HTLV-1 peptides for each allele. The allele choice was based on allele frequency in the Kagoshima database and included 2 A alleles and 2 B alleles as well as alleles for which we knew that the epitope prediction tended to be poor. The 50 HTLV-1 nonamer peptides for each allele were selected to represent a range of predicted binding affinities, from weak to strong binding peptides. They originated from 4 HTLV-1 reference strain proteins: Tax, HBZ, Gag and Polymerase.
Note the binding score is with respect to a reference good binding peptide for each allele and therefore scores can be compared within an allele but not between alleles.

Sequence | Score (experimentally measured binding affinity, % binding compared to control peptide) [%]
CPINYSLLA [HTLV-1 nonamer peptide] | 102.68
CPLCQDPTH [HTLV-1 nonamer peptide] | 36.7
DPILRSLAY [HTLV-1 nonamer peptide] | 72.18
EEEKQIAEY [HTLV-1 nonamer peptide] | 8.99
EPEEDALLL [HTLV-1 nonamer peptide] | 11.92
EPEPEEDAL [HTLV-1 nonamer peptide] | 28.71
EPGPSSYDF [HTLV-1 nonamer peptide] | 102.27
FPQCTILQY [HTLV-1 nonamer peptide] | 103.38
FPTQRTSKT [HTLV-1 nonamer peptide] | 81.35
LASLLPKGY [HTLV-1 nonamer peptide] | 98.24
LPEDCLPTT [HTLV-1 nonamer peptide] | 52.2

Each sequence was assayed against T1, HLA class I molecule A*0201 (Homo sapiens, UniProt P04439, D140Y/D185E/D98H/E176V/E277Q/G131W/G231S/I119V/I121R/I166T/I218V/L300P/L318F/N151K/N90K/P208A/P217A/Q86G/Q94H/R138H/R169H/T345S) (assay: not given). Settings: REVEAL assay, assembly of peptide-HLA complex by ELISA with conformation-dependent anti-HLA antibody, relative to positive control peptide for that allele, comparable within an allele only.
T1 construct: purchased ProImmune Ltd., Oxford, UK
Format: binding

Sequence | Score (experimentally measured binding affinity, % binding compared to control peptide) [%]
AAGAALIPV [HTLV-1 nonamer peptide] | 34.35
ALLGEIQWV [HTLV-1 nonamer peptide from Pol] | 84.64
FMQTIRLAV [HTLV-1 nonamer peptide from Gag] | 95.61
GIDGYTRQL [HTLV-1 nonamer peptide] | 28.99
ILIQTQAQI [HTLV-1 nonamer peptide] | 79.21
ILPEDCLPT [HTLV-1 nonamer peptide] | 15.96
KLLQEKEDL [HTLV-1 nonamer peptide] | 0
LLITPVLQL [HTLV-1 nonamer peptide] | 114.87
LLLDLPADI [HTLV-1 nonamer peptide] | 77.78
LLQYLCSSL [HTLV-1 nonamer peptide] | 45.68
LLYKISLTT [HTLV-1 nonamer peptide] | 78.05
LMGEVNYWQ [HTLV-1 nonamer peptide] | 12.98
LQYLCSSLV [HTLV-1 nonamer peptide] | 47.17
QLDSLISEA [HTLV-1 nonamer peptide] | 52.07
QLEGEVESL [HTLV-1 nonamer peptide] | 18.58
QLGAFLTNV [HTLV-1 nonamer peptide] | 80.99
QLLASAVLL [HTLV-1 nonamer peptide] | 100.23
QLWLAAFAA [HTLV-1 nonamer peptide] | 64.37
TLGQHLPTL [HTLV-1 nonamer peptide] | 54.56
TLSFPDPGL [HTLV-1 nonamer peptide] | 0
TLTAWQNGL [HTLV-1 nonamer peptide] | 54.64
TLYRLHVWV [HTLV-1 nonamer peptide] | 73.87
YLCSSLVAS [HTLV-1 nonamer peptide] | 42.17
YLYQLSPPI [HTLV-1 nonamer peptide from Tax] | 132.52
